Measured values: the NIST ThermoML archive (doi:10.1021/je060475r)

Key:
[1] = 101 kPa, Liquid
[2] = xn = mol fraction of the nth substance listed; settings: 101 kPa, Liquid

O=CN1CCOCC1 [N-formylmorpholine]
[1]
Settings | mass density [kg/m3] | viscosity [mPa·s]
298.15 K | 1146.06 | 7.955
303.15 K | 1141.7 | 6.877
313.15 K | 1132.96 | 5.214
323.15 K | 1124.33 | 4.08
333.15 K | 1115.63 | 3.284
343.15 K | 1107.96 | 2.707
353.15 K | 1098.76 | 2.274

O=CN1CCOCC1 [N-formylmorpholine] + c1ccccc1
[2]
Settings | mass density [kg/m3] | viscosity [mPa·s]
298.15 K, x2 = 0 | 1146.06 | 7.955
298.15 K, x2 = 0.0977 | 1124.83 | 6.078
298.15 K, x2 = 0.198 | 1101.75 | 4.597
298.15 K, x2 = 0.2987 | 1077.06 | 3.524
298.15 K, x2 = 0.4013 | 1051.67 | 2.656
298.15 K, x2 = 0.4983 | 1027.35 | 2.051
298.15 K, x2 = 0.599 | 1001.36 | 1.602
298.15 K, x2 = 0.6999 | 970.18 | 1.234
298.15 K, x2 = 0.802 | 938.33 | 0.96
298.15 K, x2 = 0.8967 | 908.12 | 0.76
303.15 K, x2 = 0 | 1141.7 | 6.877
303.15 K, x2 = 0.0977 | 1120.44 | 5.251
303.15 K, x2 = 0.198 | 1097.28 | 4.028
303.15 K, x2 = 0.2987 | 1072.53 | 3.109
303.15 K, x2 = 0.4013 | 1046.95 | 2.376
303.15 K, x2 = 0.4983 | 1022.6 | 1.858
303.15 K, x2 = 0.599 | 996.29 | 1.456
303.15 K, x2 = 0.6999 | 965.22 | 1.13
303.15 K, x2 = 0.802 | 933.24 | 0.884
303.15 K, x2 = 0.8967 | 902.85 | 0.706
313.15 K, x2 = 0 | 1132.96 | 5.214
313.15 K, x2 = 0.0977 | 1111.6 | 4.059
313.15 K, x2 = 0.198 | 1088.31 | 3.174
313.15 K, x2 = 0.2987 | 1063.41 | 2.492
313.15 K, x2 = 0.4013 | 1037.61 | 1.946
313.15 K, x2 = 0.4983 | 1013.15 | 1.538
313.15 K, x2 = 0.599 | 986.09 | 1.217
313.15 K, x2 = 0.6999 | 955.16 | 0.962
313.15 K, x2 = 0.802 | 922.97 | 0.759
313.15 K, x2 = 0.8967 | 892.39 | 0.613
323.15 K, x2 = 0 | 1124.33 | 4.08
323.15 K, x2 = 0.0977 | 1102.85 | 3.23
323.15 K, x2 = 0.198 | 1079.44 | 2.568
323.15 K, x2 = 0.2987 | 1054.39 | 2.046
323.15 K, x2 = 0.4013 | 1028.33 | 1.614
323.15 K, x2 = 0.4983 | 1003.64 | 1.296
323.15 K, x2 = 0.599 | 975.97 | 1.037
323.15 K, x2 = 0.6999 | 945.02 | 0.826
323.15 K, x2 = 0.802 | 912.7 | 0.66
323.15 K, x2 = 0.8967 | 881.97 | 0.538
333.15 K, x2 = 0 | 1115.63 | 3.284
333.15 K, x2 = 0.0977 | 1094.03 | 2.636
333.15 K, x2 = 0.198 | 1070.44 | 2.124
333.15 K, x2 = 0.2987 | 1045.28 | 1.715
333.15 K, x2 = 0.4013 | 1018.97 | 1.371
333.15 K, x2 = 0.4983 | 993.97 | 1.11
333.15 K, x2 = 0.599 | 966 | 0.898
333.15 K, x2 = 0.6999 | 934.99 | 0.721
333.15 K, x2 = 0.802 | 902.37 | 0.54
333.15 K, x2 = 0.8967 | 871.42 | 0.479
343.15 K, x2 = 0 | 1107.96 | 2.707
343.15 K, x2 = 0.0977 | 1086.23 | 2.201
343.15 K, x2 = 0.198 | 1062.45 | 1.798
343.15 K, x2 = 0.2987 | 1037.1 | 1.466
343.15 K, x2 = 0.4013 | 1010.54 | 1.183
343.15 K, x2 = 0.4983 | 985.32 | 0.966
343.15 K, x2 = 0.599 | 956.77 | 0.787
343.15 K, x2 = 0.6999 | 925.78 | 0.637
343.15 K, x2 = 0.802 | 892.86 | 0.518
343.15 K, x2 = 0.8967 | 861.54 | 0.428

c1ccccc1 [benzene]
[1]
Settings | mass density [kg/m3] | viscosity [mPa·s]
298.15 K | 873.57 | 0.601
303.15 K | 868.24 | 0.562
313.15 K | 857.34 | 0.493
323.15 K | 846.59 | 0.436
333.15 K | 835.75 | 0.389
343.15 K | 824.98 | 0.354

c1ccccc1 [benzene] + O=CN1CCOCC1
[2], x1 = 1
Settings | mass density [kg/m3] | viscosity [mPa·s]
298.15 K | 873.57 | 0.601
303.15 K | 868.24 | 0.562
313.15 K | 857.34 | 0.493
323.15 K | 846.59 | 0.436
333.15 K | 835.75 | 0.389
343.15 K | 824.98 | 0.354

Cc1ccccc1 [toluene]
[1]
Settings | mass density [kg/m3] | viscosity [mPa·s]
298.15 K | 861.65 | 0.553
303.15 K | 857.01 | 0.522
313.15 K | 847.63 | 0.467
323.15 K | 838.23 | 0.421
333.15 K | 828.71 | 0.381
343.15 K | 819.86 | 0.349
353.15 K | 809.68 | 0.321

Cc1ccccc1 [toluene] + O=CN1CCOCC1
[2], x1 = 1
Settings | mass density [kg/m3] | viscosity [mPa·s]
298.15 K | 861.65 | 0.553
303.15 K | 857.01 | 0.522
313.15 K | 847.63 | 0.467
323.15 K | 838.23 | 0.421
333.15 K | 828.71 | 0.381
343.15 K | 819.86 | 0.349
353.15 K | 809.68 | 0.321
